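Grown in 96-well plates, cells were treated for 48 hours with each compound at five concentrations. Insufficient inhibition: endpoint recorded as highest concentration tested. GI50: concentration for 50% inhibition of growth. TGI: concentration producing complete growth inhibition.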
Columns and labels:
Assay in all cases: growth of human tumour cells (NCI), 48 h
KM12 colon = tested on: KM12 colon
HL-60(TB) leukemia = tested on: HL-60(TB) leukemia
OVCAR-4 ovarian = tested on: OVCAR-4 ovarian
T-47D breast = tested on: T-47D breast
HS 578T breast = tested on: HS 578T breast
SF-539 CNS = tested on: SF-539 CNS
NCI-H23 lung = tested on: NCI-H23 lung
NCI-H460 lung = tested on: NCI-H460 lung
EKVX NSCLC = tested on: EKVX NSCLC
SR leukemia = tested on: SR leukemia
HOP-62 NSCLC = tested on: HOP-62 NSCLC
PC-3 prostate = tested on: PC-3 prostate
OVCAR-3 ovarian = tested on: OVCAR-3 ovarian
BT-549 breast = tested on: BT-549 breast
DU-145 prostate = tested on: DU-145 prostate
RPMI-8226 leukemia = tested on: RPMI-8226 leukemia
MOLT-4 leukemia = tested on: MOLT-4 leukemia
HT29 colon = tested on: HT29 colon
NCI-H226 lung = tested on: NCI-H226 lung
SK-MEL-28 melanoma = tested on: SK-MEL-28 melanoma
786-0 renal = tested on: 786-0 renal
OVCAR-5 ovarian = tested on: OVCAR-5 ovarian
HCC-2998 colon = tested on: HCC-2998 colon
NCI/ADR-RES ovarian = tested on: NCI/ADR-RES ovarian
NCI-H522 lung = tested on: NCI-H522 lung
A549 NSCLC = tested on: A549 NSCLC
K-562 leukemia = tested on: K-562 leukemia
SW-620 colon = tested on: SW-620 colon
U251 CNS = tested on: U251 CNS

CN1CCN(Cc2ccc(NC(=O)c3cnc(F)c(C#Cc4cnc(N)c5ncccc45)c3)cc2C(F)(F)F)CC1
TGI (KM12 colon): 6050 nM
GI50 (HL-60(TB) leukemia): 195 nM
TGI (HL-60(TB) leukemia): 4410 nM
GI50 (OVCAR-4 ovarian): 195 nM
TGI (OVCAR-4 ovarian): 8150 nM
GI50 (T-47D breast): 983 nM
TGI (T-47D breast): 22300 nM
GI50 (HS 578T breast): 183 nM
TGI (HS 578T breast): 2110 nM
GI50 (SF-539 CNS): 199 nM
TGI (SF-539 CNS): 2830 nM
GI50 (NCI-H23 lung): 485 nM
TGI (NCI-H23 lung): 9590 nM
GI50 (NCI-H460 lung): 182 nM
TGI (NCI-H460 lung): 6490 nM
GI50 (EKVX NSCLC): 1530 nM
TGI (EKVX NSCLC): 11300 nM
GI50 (SR leukemia): 149 nM
TGI (SR leukemia): 50000 nM
GI50 (HOP-62 NSCLC): 387 nM
TGI (HOP-62 NSCLC): 9900 nM
GI50 (PC-3 prostate): 320 nM
TGI (PC-3 prostate): 10100 nM
GI50 (OVCAR-3 ovarian): 516 nM
TGI (OVCAR-3 ovarian): 9580 nM
GI50 (BT-549 breast): 1110 nM
TGI (BT-549 breast): 9830 nM
GI50 (DU-145 prostate): 273 nM
TGI (DU-145 prostate): 7950 nM
GI50 (RPMI-8226 leukemia): 332 nM
TGI (RPMI-8226 leukemia): 22700 nM
GI50 (MOLT-4 leukemia): 182 nM
TGI (MOLT-4 leukemia): 8640 nM
GI50 (HT29 colon): 143 nM
TGI (HT29 colon): 6020 nM
GI50 (NCI-H226 lung): 121 nM
TGI (NCI-H226 lung): 1940 nM
GI50 (SK-MEL-28 melanoma): 126 nM
TGI (SK-MEL-28 melanoma): 804 nM
GI50 (786-0 renal): 448 nM
TGI (786-0 renal): 7860 nM
GI50 (OVCAR-5 ovarian): 417 nM
TGI (OVCAR-5 ovarian): 9270 nM
GI50 (HCC-2998 colon): 963 nM
TGI (HCC-2998 colon): 9210 nM
GI50 (NCI/ADR-RES ovarian): 480 nM
TGI (NCI/ADR-RES ovarian): 12500 nM
GI50 (NCI-H522 lung): 204 nM
TGI (NCI-H522 lung): 9960 nM
GI50 (A549 NSCLC): 321 nM
TGI (A549 NSCLC): 11900 nM
GI50 (K-562 leukemia): 5 nM
TGI (K-562 leukemia): 675 nM
GI50 (SW-620 colon): 226 nM
TGI (SW-620 colon): 5820 nM
GI50 (U251 CNS): 252 nM
TGI (U251 CNS): 13200 nM
